Results as given in patent US4356186A, “Acetic acid derivatives and composition containing the same” (priority 1980, dated 1982).
Where two headings read alike, the source gives them in different places.

Key:
stomach ulcer = test: Gastrointestinal ulcerogenicity; format: in vivo, Male Wistar rats; set-up: key to Average score of stomach ulcer: ulcer score 1 to 4, 4 = most severe ulcer; conditions: for Number of rats having a score of stomach ulcer of 2 or more/total number of rats used / Average score of stomach ulcer: after 6 hours; for Average score of stomach ulcer: score 1 to 4; for gastrointestinal ulcerogenicity compared with the known aspirin: in words, from Table 2
Experimental: Gastrointestinal ulcerogenicity
The test was carried out in a similar manner as disclosed in Arzneim. Forsch., 19, 36 (1969).
Male Wistar rats, weighing 130-180 g, were used. After the rats were fasted for 24 hours, the test compound was orally administered one time. After 6 hours, the rats were killed and the stomach was removed. […] The degree of stomach ulcer was scored from 1 to 4, wherein 4 is the most severe ulcer. In Table 2, there are shown the average score of stomach ulcer in each dose and also the ratio of the number of rats having a score of stomach ulcer of 2 or more to total number of rats used.

[1] = test system: carrageenin-induced hind paw edema; test: Anti-inflammatory activity (carrageenin-induced hind paw edema in rats); format: in vivo, Male Wistar rats; conditions: for inhibition in vivo at 0.2 mg/kg / inhibition in vivo at 0.4 mg/kg / inhibition in vivo at 0.8 mg/kg / inhibition in vivo at 1.6 mg/kg / inhibition in vivo at 3.2 mg/kg / inhibition in vivo at 1 mg/kg / inhibition in vivo at 4 mg/kg / inhibition in vivo at 5 mg/kg / inhibition in vivo at 2 mg/kg: Rattus norvegicus, po; for inhibition in vivo at 0.2 mg/kg: 0.2 mg/kg p.o.; for inhibition in vivo at 0.4 mg/kg: 0.4 mg/kg p.o.; for inhibition in vivo at 0.8 mg/kg: 0.8 mg/kg p.o.; for inhibition in vivo at 1.6 mg/kg: 1.6 mg/kg p.o.; for inhibition in vivo at 3.2 mg/kg: 3.2 mg/kg p.o.; for inhibition in vivo at 1 mg/kg: 1 mg/kg p.o.; for inhibition in vivo at 4 mg/kg: 4 mg/kg p.o.; for inhibition in vivo at 5 mg/kg: 5 mg/kg p.o.; for inhibition in vivo at 2 mg/kg: 2 mg/kg p.o.
Experimental: Anti-inflammatory activity (carrageenin-induced hind paw edema in rats)
The test was carried out in a similar manner as disclosed in Proc. Soc. Exptl.
Male Wistar rats, weighing 100-300 g, were used. A 1% aqueous carrageenin solution (0.1 ml) was administered subcutaneously into the hind foot pad of rats. Two and three hours after the carrageenin injection, the paw volume was measured and the swelling rate was calculated based on the paw volume before the carrageenin injection. The inhibitory rate was determined as compared with the average swelling rate of the control group to which only vehicle was administered. The test compounds were administered orally one hour before the carrageenin injection.

Acute lethal toxicity = format: in vivo; conditions: rat, in vivo; single oral administration, mortality on the 7th day, Litchfield and Wilcoxon
Experimental: (§1) The mortality was observed on the 7th day after single oral administration of test compounds in male Wistar rats, and the LD50 was calculated according to the method of Litchfield and Wilcoxon.

male Wistar rats = test: Acute lethal toxicity; format: in vivo; conditions: from LD50, single oral administration
Experimental: as §1

[2] = 2 h, two hours, read-out: Inhibitory rate, two hours after the carrageenin injection
[3] = 3 h, three hours, read-out: Inhibitory rate, three hours after the carrageenin injection

For `CC(C(=O)O)c1ccc2c(c1)SCC1CCCCC1C2=O` (stereo not shown) [F, 2-(6,6a,7,8,9,10,10a,11-Octahydro-11-oxodibenzo[b,e]thiepin-3-yl)propionicacid-A], the “Number of rats having a score of stomach ulcer of 2 or more/total number of rats used” value (shortened to “Number … of 2 or more/total number of rats used”) (stomach ulcer; 16 mg/kg p.o.) was 2/6, the “Average score of stomach ulcer” value (stomach ulcer; 16 mg/kg p.o.) was 1.00 and the “Number … of 2 or more/total number of rats used” value (stomach ulcer; 32 mg/kg p.o.) was 2/6. For the same compound, the “Average score of stomach ulcer” value (stomach ulcer; 32 mg/kg p.o.) was 1.00, the “Number … of 2 or more/total number of rats used” value (stomach ulcer; 64 mg/kg p.o.) was 6/9 and the “Average score of stomach ulcer” value (stomach ulcer; 64 mg/kg p.o.) was 1.67. It also gave an inhibition in vivo at 0.2 mg/kg [1, 2] of 8.6%, an inhibition in vivo at 0.4 mg/kg [1, 2] of 14.9% and an inhibition in vivo at 0.8 mg/kg [1, 2] of 20.5%. The inhibition in vivo at 1.6 mg/kg [1, 2] was 28.4%, the inhibition in vivo at 3.2 mg/kg [1, 2] was 36.4% and the inhibition in vivo at 0.2 mg/kg [1, 3] was 6.7%. It also gave an inhibition in vivo at 0.4 mg/kg [1, 3] of 11.6%, an inhibition in vivo at 0.8 mg/kg [1, 3] of 12.6% and an inhibition in vivo at 1.6 mg/kg [1, 3] of 20.3%. For the same compound, the inhibition in vivo at 3.2 mg/kg [1, 3] was 30.6% and the “anti-inflammatory activity compared with the known indomethacin” value ([1]; in words, from Table 1) was “comparable or superior to that of the known indomethacin”.
For `CC(C(=O)O)c1ccc2c(c1)SCC1CCCCC1C2=O` (stereo not shown) [H, Calcium 2-(6,6a,7,8,9,10,10a,11-octahydro-11-oxodibenzo[b,e]thiepin-3-yl)propionate], the “Number … of 2 or more/total number of rats used” value (stomach ulcer; 16 mg/kg p.o.) was 1/3, the “Average score of stomach ulcer” value (stomach ulcer; 16 mg/kg p.o.) was 1.00 and the “Number … of 2 or more/total number of rats used” value (stomach ulcer; 32 mg/kg p.o.) was 2/3. For the same compound, the “Average score of stomach ulcer” value (stomach ulcer; 32 mg/kg p.o.) was 1.33, the inhibition in vivo at 1 mg/kg [1, 2] was 31.4% and the inhibition in vivo at 4 mg/kg [1, 2] was 39.5%. The inhibition in vivo at 1 mg/kg [1, 3] was 26.2% and the inhibition in vivo at 4 mg/kg [1, 3] was 35.7%.
For `CCOC(=O)C(C)c1ccc2c(c1)SCC1CCCCC1C2=O` (stereo not shown) [I, Ethyl 2-(6,6a,7,8,9,10,10a,11-octahydro-11-oxodibenzo[b,e]thiepin-3-yl)propionate], the “Number … of 2 or more/total number of rats used” value (stomach ulcer; 8 mg/kg p.o.) was 0/3, the “Average score of stomach ulcer” value (stomach ulcer; 8 mg/kg p.o.) was 0.00 and the “Number … of 2 or more/total number of rats used” value (stomach ulcer; 32 mg/kg p.o.) was 0/6. For the same compound, the “Average score of stomach ulcer” value (stomach ulcer; 32 mg/kg p.o.) was 0.33, the “Number … of 2 or more/total number of rats used” value (stomach ulcer; 64 mg/kg p.o.) was 3/6 and the “Average score of stomach ulcer” value (stomach ulcer; 64 mg/kg p.o.) was 1.00. For the same compound, the “gastrointestinal ulcerogenicity compared with the known aspirin” value (stomach ulcer) was “far less gastrointestinal ulcerogenicity than the known aspirin”, the inhibition in vivo at 5 mg/kg [1, 2] was 42.2% and the inhibition in vivo at 5 mg/kg [1, 3] was 38.3%.
For `CCCCOC(=O)C(C)c1ccc2c(c1)SCC1CCCCC1C2=O` (stereo not shown) [J, Butyl 2-(6,6a,7,8,9,10,10a,11-octahydro-11-oxodibenzo[b,e]thiepin-3-yl)propionate], the “Number … of 2 or more/total number of rats used” value (stomach ulcer; 16 mg/kg p.o.) was 0/3, the “Average score of stomach ulcer” value (stomach ulcer; 16 mg/kg p.o.) was 0.33 and the “Number … of 2 or more/total number of rats used” value (stomach ulcer; 32 mg/kg p.o.) was 3/6. For the same compound, the “Average score of stomach ulcer” value (stomach ulcer; 32 mg/kg p.o.) was 1.33, the “Number … of 2 or more/total number of rats used” value (stomach ulcer; 64 mg/kg p.o.) was 3/6 and the “Average score of stomach ulcer” value (stomach ulcer; 64 mg/kg p.o.) was 1.50. The inhibition in vivo at 2 mg/kg [1, 2] was 21.5%, the inhibition in vivo at 5 mg/kg [1, 2] was 31.8% and the inhibition in vivo at 2 mg/kg [1, 3] was 11.5%. For the same compound, the inhibition in vivo at 5 mg/kg [1, 3] was 26%.
With `CC(C(=O)OCCc1ccccc1)c1ccc2c(c1)SCC1CCCCC1C2=O` (stereo not shown) [L, Phenethyl 2-(6,6a,7,8,9,10,10a,11-octahydro-11-oxodibenzo[b,e]thiepin-3-yl)propionate] the LD50 at 168 h (Acute lethal toxicity) was 230 mg/kg, the “toxicity relative to that of indomethacin” value (male Wistar rats) was “about 1/12” and the “Number … of 2 or more/total number of rats used” value (stomach ulcer; 32 mg/kg p.o.) was 1/9. The “Average score of stomach ulcer” value (stomach ulcer; 32 mg/kg p.o.) was 0.56, the “Number … of 2 or more/total number of rats used” value (stomach ulcer; 64 mg/kg p.o.) was 0/6 and the “Average score of stomach ulcer” value (stomach ulcer; 64 mg/kg p.o.) was 0.67. For the same compound, the “gastrointestinal ulcerogenicity compared with the known aspirin” value (stomach ulcer) was “far less gastrointestinal ulcerogenicity than the known aspirin”, the inhibition in vivo at 2 mg/kg [1, 2] was 20.7% and the inhibition in vivo at 5 mg/kg [1, 2] was 44.8%. For the same compound, the inhibition in vivo at 2 mg/kg [1, 3] was 24.8% and the inhibition in vivo at 5 mg/kg [1, 3] was 39.1%.
In the case of `CC(C(=O)OCc1ccccn1)c1ccc2c(c1)SCC1CCCCC1C2=O` (stereo not shown) [O, 2-Pyridylmethyl 2-(6,6a,7,8,9,10,10a,11-octahydro-11-oxodibenzo[b,e]thiepin-3-yl)propionate], the “Number … of 2 or more/total number of rats used” value (stomach ulcer; 32 mg/kg p.o.) is reported as 2/6, the “Average score of stomach ulcer” value (stomach ulcer; 32 mg/kg p.o.) is reported as 0.67 and the “Number … of 2 or more/total number of rats used” value (stomach ulcer; 64 mg/kg p.o.) is reported as 4/6. For the same compound, the “Average score of stomach ulcer” value (stomach ulcer; 64 mg/kg p.o.) was 1.83, the inhibition in vivo at 2 mg/kg [1, 2] was 31.4% and the inhibition in vivo at 5 mg/kg [1, 2] was 30.8%. The inhibition in vivo at 2 mg/kg [1, 3] was 28.8% and the inhibition in vivo at 5 mg/kg [1, 3] was 30.6%.
In the case of `CC(C(=O)OCCc1ccccn1)c1ccc2c(c1)SCC1CCCCC1C2=O` (stereo not shown) [P, 2-(2-Pyridyl)ethyl 2-(6,6a,7,8,9,10,10a,11-octahydro-11-oxodibenzo[b,e]thiepin-3-yl)propionate], the “Number … of 2 or more/total number of rats used” value (stomach ulcer; 32 mg/kg p.o.) is reported as 0/6, the “Average score of stomach ulcer” value (stomach ulcer; 32 mg/kg p.o.) is reported as 0.17 and the “Number … of 2 or more/total number of rats used” value (stomach ulcer; 64 mg/kg p.o.) is reported as 3/6. For the same compound, the “Average score of stomach ulcer” value (stomach ulcer; 64 mg/kg p.o.) was 0.50, the “gastrointestinal ulcerogenicity compared with the known aspirin” value (stomach ulcer) was “far less gastrointestinal ulcerogenicity than the known aspirin” and the inhibition in vivo at 5 mg/kg [1, 2] was 27.6%. The inhibition in vivo at 5 mg/kg [1, 3] was 25.5%.
